Experimental data as given in patent US7462646B2, “Osteoclastogenesis inhibitors and uses thereof” (Research Development Foundation, priority 2003, dated 2008).

Legend:
[1] = tested on: NF-κB; assay: RANKL-induced NF-κB activation by EMSA in RAW 264.7 cells; format: cell-based, mouse
Protocol: (§1) RAW264.7 cells (1×10^6 cells) were incubated with variable concentrations of guggulsterone for 4 h followed by treatment of the cells with RANKL (10 nM) for 25 min. The samples were then analyzed for NF-κB by EMSA. […] RAW264.7 cells (5×10^6 cells) were incubated with guggulsterone (50 μM) for 4 h followed by treatment of the cells with RANKL (10 nM) for different times. The samples were then analyzed for IKK by immune complex kinase assay.
RAW264.7 cells (1×10^6 cells) were incubated with 1′-Acetoxychavicol (50 μM) and RANKL (10 nm) for different times. The samples were then analyzed for NF-κB by EMSA. […] RAW264.7 cells (1×10^6 cells) were incubated with variable concentrations of 1′-Acetoxychavicol and RANKL (10 nM) for 25 min. The samples were then analyzed for NF-κB by EMSA.
Nuclear extracts were prepared as described earlier (Bharti et al., 2003). Briefly, 2×10^6 RAW264.7 cells were washed with cold PBS, scraped, and suspended in 0.4 ml of hypotonic lysis buffer containing protease inhibitors for 30 min. The cells were then lysed with 12.5 μl of 10% Nonidet P-40. The homogenate was centrifuged, and supernatant containing the cytoplasmic extracts was stored frozen at −80° C. The nuclear pellet was re-suspended in 25 μl ice-cold nuclear extraction buffer. After 30 min of intermittent mixing, the extract was centrifuged, and supernatants containing nuclear extracts were secured. The protein content was measured by the Bradford method. If the extracts were not used immediately, they were stored at −80° C.
NF-κB activation was analyzed by electrophoretic mobility gel shift assay as described (Chaturvedi et al., 1994). […] The radioactive bands from the dried gels were visualized and quantitated by the Phosphorlmager (Molecular Dynamics, Sunnyvale, Calif.) using ImageQuant software.

[2] = tested on: IκBα; assay: RANKL-induced IκBα degradation by Western blotting in RAW 264.7 cells; format: cell-based, mouse
Protocol: (§2) RAW264.7 cells (1×10^6 cells) were incubated with 1′-Acetoxychavicol (50 μM) and RANKL (10 nM) for different times. The samples were then analyzed for IκBα by western blot. […] RAW264.7 cells (1×10^6 cells) were incubated with different combinations of 1′-Acetoxychavicol (50 μM), RANKL (10 nM), acetyl-leucyl-leucyl-norleucinal (ALLN, 50 μg/ml) for 25 min. The samples were analyzed for phosphorylated IκBα by western blot.
(§3) Thirty to fifty micrograms of cytoplasmic protein extracts were resolved on 10% SDS-PAGE gel. After electrophoresis, the proteins were electrotransferred to a nitrocellulose membrane, blocked with 5% nonfat milk, and probed with antibodies against either IκBα, phospho-IκBα, IKKα, IKKβ, or β-actin (1:3000) for 1 h. Thereafter, the blot was washed, exposed to HRP-conjugated secondary antibodies for 1 h, and finally detected by chemiluminescence (ECL, Amersham Pharmacia Biotech, Arlington Heights, Ill.).

[3] = tested on: phospho-IκBα; assay: RANKL-induced IκBα phosphorylation by Western blotting in RAW 264.7 cells; format: cell-based, mouse; details: for RANKL-induced phosphorylation of IκBα: RANKL 10 nM
Protocol: as §2, §3

[4] = tested on: RAW 264.7 cells; assay: Osteoclast differentiation assay (RANKL-induced, TRAP staining); format: cell-based, mouse
Protocol: Cells were cultured for 5 days after RANKL treatment and stained for TRAP expression. […] Values indicate mean of total osteoclasts in triplicate cultures (error bar indicates s.d.).
RAW264.7 cells (1×10^4 cells) were incubated with guggulsterone (5 μM) and RANKL (5 nM) for different days. The samples were then analyzed for osteoclastogenesis by TRAP assay. […]
RAW264.7 cells were cultured in 24-well dishes at a density of 1×10^4 cells per well and were allowed to adhere overnight. Medium was then replaced and the cells were treated with 100 ng/ml (˜5 nM) RANKL. At day 5, cultures were stained for TRAP expression as described (Shevde et al., 2000) using an acid phosphatase kit, and the total number of TRAP-positive multinucleated osteoclasts (>3 nuclei) per well were counted.

[5] = tested on: RAW264.7 cells incubated with MDA-MB-468 cells; assay: MDA-MB-468 breast adenocarcinoma cells-induced osteoclastogenesis (TRAP assay); format: cell-based, mouse; details: five days
Protocol: (§4) RAW264.7 cells (1×10^4 cells) were incubated either with MDA-MB-468 cells (1×10^3 cells) or with MCF-7 cells (1×10^3 cells) in the presence of varying concentrations of 1′-Acetoxychavicol for five days and then analyzed for osteoclastogenesis by TRAP assay.
(§5) RAW264.7 cells (1×10^4 cells) were incubated with MDA-MB-468 cells (1×10^3 cells) or with MCF-7 cells (1×10^3 cells) in the presence of varying concentrations of guggulsterone for five days and then analyzed for osteoclastogenesis by TRAP assay.
(§6) The ability of tumor cells to induce osteoclastogenesis was also investigated in this study. Cells from head and neck squamous cell carcinoma and breast adenocarcinoma were used for this purpose. Briefly, RAW264.7 cells were incubated with different numbers of cells of head and neck squamous cell carcinoma (HN5, Fadu) or breast adenocarcinoma (MDA-MB-468, MCF-7) and then analyzed for osteoclastogenesis by TRAP assay.

[6] = tested on: RAW264.7 cells incubated with MCF-7 cells; assay: MCF-7 breast adenocarcinoma cells-induced osteoclastogenesis (TRAP assay); format: cell-based, mouse; details: five days
Protocol: as §4, §5, §6

[7] = biological target: T1, IκB kinase (IKK) (Mus musculus, UniProt O88351+Q60680); assay: IκB kinase (immune complex kinase) assay on extracts of treated RAW 264.7 cells; format: cell-based
T1 construct: 200 μg cytoplasmic extracts were immunoprecipitated with 1 μg of anti-IKKα and anti-IKKβ antibodies each; endogenous in cells; host or cells: RAW 264.7 (mouse macrophage cell line), cytoplasmic extracts, immunoprecipitated with anti-IKKα and anti-IKKβ
T1 sequence (Q60680 whole entry): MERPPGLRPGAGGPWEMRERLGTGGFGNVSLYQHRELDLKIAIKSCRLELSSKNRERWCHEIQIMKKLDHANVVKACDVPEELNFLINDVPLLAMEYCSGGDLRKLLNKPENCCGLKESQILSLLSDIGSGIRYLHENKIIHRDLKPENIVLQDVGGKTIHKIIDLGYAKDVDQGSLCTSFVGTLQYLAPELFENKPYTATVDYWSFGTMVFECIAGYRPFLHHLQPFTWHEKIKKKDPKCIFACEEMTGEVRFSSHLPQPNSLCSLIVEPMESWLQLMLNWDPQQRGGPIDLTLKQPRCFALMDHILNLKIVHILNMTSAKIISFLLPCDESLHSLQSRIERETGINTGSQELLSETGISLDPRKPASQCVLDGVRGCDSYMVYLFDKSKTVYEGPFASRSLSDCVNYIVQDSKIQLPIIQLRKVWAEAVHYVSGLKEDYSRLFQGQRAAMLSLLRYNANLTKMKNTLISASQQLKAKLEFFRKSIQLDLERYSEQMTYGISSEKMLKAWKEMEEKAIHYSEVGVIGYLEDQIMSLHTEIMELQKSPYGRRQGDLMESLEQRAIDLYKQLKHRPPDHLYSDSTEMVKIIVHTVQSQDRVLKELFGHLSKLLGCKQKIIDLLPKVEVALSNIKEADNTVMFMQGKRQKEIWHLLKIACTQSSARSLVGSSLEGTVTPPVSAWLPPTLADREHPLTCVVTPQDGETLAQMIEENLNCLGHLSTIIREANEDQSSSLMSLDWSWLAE
T1 sequence (O88351 whole entry): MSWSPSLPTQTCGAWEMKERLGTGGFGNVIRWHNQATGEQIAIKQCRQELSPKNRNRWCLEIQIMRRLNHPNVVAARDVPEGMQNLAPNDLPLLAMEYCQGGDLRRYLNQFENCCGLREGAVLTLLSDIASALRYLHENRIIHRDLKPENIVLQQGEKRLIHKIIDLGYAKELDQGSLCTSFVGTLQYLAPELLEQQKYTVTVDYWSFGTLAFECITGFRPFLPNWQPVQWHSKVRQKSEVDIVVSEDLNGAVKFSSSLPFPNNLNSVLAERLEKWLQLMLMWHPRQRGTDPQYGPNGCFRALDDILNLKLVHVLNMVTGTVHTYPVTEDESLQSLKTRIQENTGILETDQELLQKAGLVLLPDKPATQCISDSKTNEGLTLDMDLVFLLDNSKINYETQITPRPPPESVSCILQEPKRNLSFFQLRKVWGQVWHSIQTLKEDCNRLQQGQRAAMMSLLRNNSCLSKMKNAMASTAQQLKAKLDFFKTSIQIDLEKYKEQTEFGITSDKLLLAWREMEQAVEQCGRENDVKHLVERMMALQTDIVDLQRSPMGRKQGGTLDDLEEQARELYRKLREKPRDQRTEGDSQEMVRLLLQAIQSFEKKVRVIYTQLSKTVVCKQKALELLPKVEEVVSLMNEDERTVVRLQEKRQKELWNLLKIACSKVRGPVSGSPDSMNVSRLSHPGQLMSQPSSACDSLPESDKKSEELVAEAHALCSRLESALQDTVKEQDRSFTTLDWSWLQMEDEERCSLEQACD
T1 sequence (O88522 whole entry partner): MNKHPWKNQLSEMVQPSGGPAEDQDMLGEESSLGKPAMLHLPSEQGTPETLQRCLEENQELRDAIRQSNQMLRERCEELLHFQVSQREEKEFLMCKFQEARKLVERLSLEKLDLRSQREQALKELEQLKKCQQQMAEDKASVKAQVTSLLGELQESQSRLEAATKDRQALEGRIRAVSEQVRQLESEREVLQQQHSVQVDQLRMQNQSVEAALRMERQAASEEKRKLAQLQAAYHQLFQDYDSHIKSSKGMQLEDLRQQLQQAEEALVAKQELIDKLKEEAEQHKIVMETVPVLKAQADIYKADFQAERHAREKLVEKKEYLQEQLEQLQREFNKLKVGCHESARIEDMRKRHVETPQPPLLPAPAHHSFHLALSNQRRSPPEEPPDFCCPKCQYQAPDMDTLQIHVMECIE
Protocol: as §1

[8] = tested on: IKKα; assay: IKKα protein expression by Western blotting; format: cell-based, mouse; details: curcumin 50 μM; FIG. 2C middle/lower panel
Protocol: as §3
(§7) The IκB kinase assay was performed by a modified method as described earlier (Manna et al., 2000). Briefly, 200 μg cytoplasmic extracts were immunoprecipitated with 1 μg of anti-IKKα and anti-IKKβ antibodies each, and the immune complexes so formed were precipitated with 0.01 ml of protein A/G-Sepharose beads for 2 hours. The beads were washed first with lysis buffer and then with the kinase assay buffer (50 mM HEPES pH 7.4, 20 mM MgCl2, and 2 mM DTT). The immune complex was then assayed for kinase activity usinig kinase assay buffer containing 20 μCi [γ-^32P] ATP, 10 μM unlabeled ATP, and 2 μg/sample glutathione S-transferase-IκBα (amino acids 1-54). After incubation at 30° C. for 30 min, the mixture was boiled with 6×SDS sample buffer to stop the reaction. […] The radioactive bands of the dried gel were visualized and quantitated by Phosphorlmager. […]

[9] = tested on: IKKβ; assay: IKKβ protein expression by Western blotting; format: cell-based, mouse; details: curcumin 50 μM; FIG. 2C middle/lower panel
Protocol: as §3, §7

[10] = curcumin 10 μM, RANKL 5 nM, 5 days, FIG. 4

## C=CC(OC(C)=O)c1ccc(O)cc1 (stereo not shown) [1′-Acetoxychavicol]
[1]; 1′-Acetoxychavicol 50 μM and RANKL 10 nM for different times, FIG. 9A
  RANKL-induced NF-κB activation (EMSA), time course: suppressed RANKL-induced NF-κB activation in time-dependent manner
[1]; RANKL 10 nM 25 min, FIG. 9B
  concentration of 1′-Acetoxychavicol at which maximal inhibition of RANKL-induced NF-κB activation was observed: 50 µM
[1]; variable concentrations of 1′-Acetoxychavicol and RANKL 10 nM for 25 min, FIG. 9B
  RANKL-induced NF-κB activation (EMSA), dose dependence: suppressed RANKL-induced NF-κB activation in a dose-dependent manner
[2]; 1′-Acetoxychavicol 50 μM and RANKL 10 nM for different times, FIG. 10A
  RANKL-induced IκBα level (degradation): no decrease in the RANKL-induced IκBα level
[3]; 1′-Acetoxychavicol 50 μM, ALLN 50 μg/ml, 25 min, FIG. 10B
  RANKL-induced phosphorylation of IκBα: suppressed
[4]; 1′-Acetoxychavicol 0.5 μM and RANKL 5 nM, 3 days, FIG. 11A
  RANKL-induced osteoclastogenesis (TRAP assay), incubated for 3 days: able to suppress the RANKL-induced osteoclastogenesis
[4]; 1′-Acetoxychavicol 0.5 μM and RANKL 5 nM, longer time, FIG. 11A
  RANKL-induced osteoclastogenesis (TRAP assay), incubated for longer than 3 days: osteoclasts were seen
[4]; RANKL 5 nM, 1′-Acetoxychavicol 0.5 μM added on different days, FIG. 12
  RANKL-induced osteoclastogenesis, time of addition of 1′-Acetoxychavicol: suppressed RANKL-induced osteoclastogenesis only when added together with RANKL
[4]; different concentrations of 1′-Acetoxychavicol, RANKL 5 nM, FIG. 11B
  number of RANKL-induced osteoclasts versus 1′-Acetoxychavicol concentration: decreased with increasing concentrations of 1′-Acetoxychavicol
[5]; varying concentrations of 1′-Acetoxychavicol, FIG. 15B
  number of TRAP-positive cells, MDA-MB-468 co-incubation: decreased as the concentration of 1′-Acetoxychavicol increased
[5]; varying concentrations of 1′-Acetoxychavicol, FIGS. 15A and 15B
  MDA-MB-468 cells induced osteoclastogenesis: suppressed
[6]; varying concentrations of 1′-Acetoxychavicol, FIG. 15D
  number of TRAP-positive cells, MCF-7 co-incubation: decreased as the concentration of 1′-Acetoxychavicol increased
[6]; varying concentrations of 1′-Acetoxychavicol, FIGS. 15C and 15D
  MCF-7 cells induced osteoclastogenesis: suppressed

## COc1cc(/C=C/C(=O)CC(=O)/C=C/c2ccc(O)c(OC)c2)ccc1O [curcumin, diferuloylmethane]
[1]; curcumin 50 μM for 2 hours, then RANKL 10 nM, FIG. 1A
  RANKL-induced NF-κB activation (EMSA): completely abrogated the RANKL-induced NF-κB activation
[1]; curcumin 2 h, then RANKL 10 nM, FIG. 1B
  concentration of curcumin at which complete inhibition of RANKL-induced NF-κB activation was observed: 50 µM
[1]; indicated concentrations of curcumin 2 h, then RANKL 10 nM, FIG. 1B
  dose dependence of inhibition of RANKL-induced NF-κB: increased as the dose of curcumin was increased
[2]; curcumin 50 μM 2 h pretreatment, RANKL 10 nM, FIG. 2A
  RANKL-induced IκBα level (degradation): no decrease in the RANKL-induced IκBα level
[3]; curcumin 50 μM 2 h pretreatment, FIG. 2B
  RANKL-induced phosphorylation of IκBα: eliminated the RANKL-induced phosphorylation
[3]; curcumin alone, no RANKL, FIG. 2B
  phosphorylation of IκBα, curcumin alone: did not result in phosphorylation of IκBα
[7]; curcumin 50 μM 2 h pretreatment, RANKL 10 nM, FIG. 2C upper panel
  RANKL-induced IKK activity (phosphorylation of GST-IκBα substrate): could not phosphorylate guggulsterone T-IκBα upon RANKL treatment
[8]
  expression of IKKα: did not alter the expression
[9]
  expression of IKKβ: did not alter the expression
[4]; RANKL 5 nM, different concentrations of curcumin, 5 days, FIG. 3B
  number of RANKL-induced osteoclasts versus curcumin concentration: number of osteoclasts decreased with increasing concentration of curcumin
[4]; curcumin 10 μM added at the same time as RANKL 5 nM, 5 days
  RANKL-induced osteoclastogenesis, curcumin added together with RANKL: suppressed osteoclastogenesis maximally
[4]; [10]
  RANKL-induced osteoclastogenesis, curcumin added 24 hours after RANKL: inhibited osteoclastogenesis
  RANKL-induced osteoclastogenesis, curcumin added 2 days after RANKL: inhibitory effect decreased significantly

## C/C=C1\C(=O)C[C@H]2[C@@H]3CCC4=CC(=O)CC[C@]4(C)[C@H]3CC[C@]12C [guggulsterone]
[1]; guggulsterone 4 h, then RANKL 10 nM 25 min, FIG. 6A
  concentration of guggulsterone at which maximal inhibition of RANKL-induced NF-κB activation was observed: 50 µM
[1]; guggulsterone in the absence of RANKL, FIG. 6A
  NF-κB activation, guggulsterone alone: no NF-κB activation
[1]; variable concentrations of guggulsterone 4 h, then RANKL 10 nM 25 min, FIG. 6A
  dose dependence of suppression of RANKL-induced NF-κB activation (EMSA): suppression of this activation increased as the concentration of guggulsterone increased
[7]; guggulsterone 50 μM 4 h pretreatment, RANKL 10 nM different times, FIG. 6B
  RANKL-induced IKK activity (immune complex kinase assay): absence of IKK activity upon RANKL treatment
[4]; RANKL 5 nM, guggulsterone 5 μM added on different days, FIG. 8
  RANKL-induced osteoclastogenesis, time of addition of guggulsterone: suppressed RANKL-induced osteoclastogenesis only when added together with RANKL
[4]; guggulsterone 5 μM and RANKL 5 nM for different days, FIG. 7A
  RANKL-induced osteoclastogenesis (TRAP assay): suppressed RANKL-induced osteoclastogenesis
[4]; guggulsterone, RANKL 5 nM, FIG. 7B
  number of RANKL-induced TRAP positive cells: decreased with increasing concentration of guggulsterone
[5]; varying concentrations of guggulsterone, FIG. 16B
  number of TRAP-positive cells, MDA-MB-468 co-incubation: decreased as the concentration of guggulsterone increased
[5]; varying concentrations of guggulsterone, FIGS. 16A and 16B
  MDA-MB-468 cells induced osteoclastogenesis: suppressed
[6]; varying concentrations of guggulsterone, FIG. 16D
  number of TRAP-positive cells, MCF-7 co-incubation: decreased as the concentration of guggulsterone increased
[6]; varying concentrations of guggulsterone, FIGS. 16C and 16D
  MCF-7 cells induced osteoclastogenesis: suppressed
